{
  "source": "ChEMBL document CHEMBL1201862",
  "about": "“PubChem BioAssay data set” (2004)",
  "key": {"Caspase-9": {"target": "Caspase-9 (Homo sapiens, UniProt P55211)", "assay": "inhibitors of purified CASP9 protease – biochemical, fluorescence, plate reader, cherry-picked samples, selectivity assay for caspase-6 inhibitor project, dose response (AID 743293)"}, "Caspase-3": {"target": "T1, Caspase-3 (Homo sapiens, UniProt P42574)", "T1 sequence (P42574 whole entry)": "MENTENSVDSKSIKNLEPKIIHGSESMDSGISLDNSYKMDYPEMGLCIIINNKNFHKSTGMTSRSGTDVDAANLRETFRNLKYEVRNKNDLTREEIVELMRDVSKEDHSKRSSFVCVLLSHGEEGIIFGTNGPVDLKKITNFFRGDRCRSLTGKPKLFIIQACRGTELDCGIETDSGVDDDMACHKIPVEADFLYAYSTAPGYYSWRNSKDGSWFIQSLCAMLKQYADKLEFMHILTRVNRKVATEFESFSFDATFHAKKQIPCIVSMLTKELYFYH", "assay": "SAR Analysis of small molecule inhibitors of Sentrin-specific proteases (SENPs) using a Caspase-3 Selectivity assay. [Related pubchem assays (depositor defined):AID2540, AID2599, AID434973, AID489001]", "type": "functional"}, "[1]": {"target": "Heat shock protein HSP 90-alpha (Homo sapiens, UniProt P07900)", "type": "functional, organism-based"}, "[2]": {"target": "Tyrosine-protein kinase Fer (Homo sapiens, UniProt P16591)", "type": "functional"}, "[3]": {"target": "Casein kinase I isoform gamma-1 (Homo sapiens, UniProt Q9HCP0)", "sequence (Q9HCP0 whole entry, canonical isoform)": "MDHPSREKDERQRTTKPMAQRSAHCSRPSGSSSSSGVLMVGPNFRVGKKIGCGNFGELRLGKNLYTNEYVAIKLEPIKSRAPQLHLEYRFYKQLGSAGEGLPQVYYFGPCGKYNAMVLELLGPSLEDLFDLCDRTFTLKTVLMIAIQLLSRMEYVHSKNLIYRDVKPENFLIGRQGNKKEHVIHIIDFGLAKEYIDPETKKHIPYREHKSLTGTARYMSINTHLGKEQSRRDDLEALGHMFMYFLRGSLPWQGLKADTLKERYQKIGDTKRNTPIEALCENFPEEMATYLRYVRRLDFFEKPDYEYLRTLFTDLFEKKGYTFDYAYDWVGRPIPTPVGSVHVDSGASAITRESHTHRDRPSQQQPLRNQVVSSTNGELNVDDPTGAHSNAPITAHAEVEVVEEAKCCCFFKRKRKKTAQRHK", "type": "functional"}, "[4]": {"target": "Serine/threonine-protein kinase D3 (Homo sapiens, UniProt O94806)", "type": "functional"}, "[5]": {"target": "Fibroblast growth factor receptor 1 (Homo sapiens, UniProt P11362)", "type": "functional"}, "[6]": {"target": "Casein kinase I isoform alpha (Homo sapiens, UniProt P48729)", "sequence (P48729 whole entry, canonical isoform)": "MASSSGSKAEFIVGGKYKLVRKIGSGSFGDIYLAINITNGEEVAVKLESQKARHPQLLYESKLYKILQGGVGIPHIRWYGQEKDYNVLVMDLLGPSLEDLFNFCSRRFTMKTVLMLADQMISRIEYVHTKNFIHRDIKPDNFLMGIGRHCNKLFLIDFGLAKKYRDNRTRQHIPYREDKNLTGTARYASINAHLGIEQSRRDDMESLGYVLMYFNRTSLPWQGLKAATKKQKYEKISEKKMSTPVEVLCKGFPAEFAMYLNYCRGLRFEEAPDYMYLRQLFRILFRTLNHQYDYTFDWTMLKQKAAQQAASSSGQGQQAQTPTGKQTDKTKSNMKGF", "type": "functional"}, "[7]": {"target": "Macrophage colony-stimulating factor 1 receptor (Homo sapiens, UniProt P07333)", "type": "functional"}, "[8]": {"target": "Tyrosine-protein kinase FRK (Homo sapiens, UniProt P42685)", "type": "functional"}, "[9]": {"target": "Serine/threonine-protein kinase Nek4 (Homo sapiens, UniProt P51957)", "type": "functional"}, "[10]": {"target": "5'-AMP-activated protein kinase catalytic subunit alpha-1 (Homo sapiens, UniProt Q13131)", "type": "functional"}, "[11]": {"target": "High affinity nerve growth factor receptor (Homo sapiens, UniProt P04629)", "sequence (P04629 whole entry)": "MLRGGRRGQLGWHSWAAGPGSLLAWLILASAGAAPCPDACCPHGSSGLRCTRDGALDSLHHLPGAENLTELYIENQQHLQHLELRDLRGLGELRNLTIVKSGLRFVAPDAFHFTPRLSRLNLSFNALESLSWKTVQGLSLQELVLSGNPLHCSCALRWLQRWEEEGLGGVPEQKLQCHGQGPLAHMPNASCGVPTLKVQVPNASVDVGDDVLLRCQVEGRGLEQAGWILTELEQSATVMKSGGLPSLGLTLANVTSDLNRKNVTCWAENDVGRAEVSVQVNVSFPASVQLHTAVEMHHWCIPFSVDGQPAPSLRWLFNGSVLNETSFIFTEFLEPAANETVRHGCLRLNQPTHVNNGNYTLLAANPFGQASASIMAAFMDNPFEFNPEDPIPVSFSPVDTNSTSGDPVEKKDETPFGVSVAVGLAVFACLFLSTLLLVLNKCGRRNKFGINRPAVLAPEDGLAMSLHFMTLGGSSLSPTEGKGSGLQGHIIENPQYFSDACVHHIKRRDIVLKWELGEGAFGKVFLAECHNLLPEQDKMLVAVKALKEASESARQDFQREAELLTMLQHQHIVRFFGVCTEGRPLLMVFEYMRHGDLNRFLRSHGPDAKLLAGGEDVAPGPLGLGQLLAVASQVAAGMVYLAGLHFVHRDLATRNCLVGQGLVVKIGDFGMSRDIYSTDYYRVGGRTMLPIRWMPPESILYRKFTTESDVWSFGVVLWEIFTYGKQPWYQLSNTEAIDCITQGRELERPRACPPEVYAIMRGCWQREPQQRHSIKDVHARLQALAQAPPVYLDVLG", "type": "functional"}, "[12]": {"target": "Serine/threonine-protein kinase Chk2 (Homo sapiens, UniProt O96017)", "type": "functional"}, "Aurora kinase B": {"target": "Aurora kinase B (Homo sapiens, UniProt Q96GD4)", "type": "functional"}, "[13]": {"target": "cAMP-dependent protein kinase catalytic subunit PRKX (Homo sapiens, UniProt P51817)", "sequence (P51817 whole entry)": "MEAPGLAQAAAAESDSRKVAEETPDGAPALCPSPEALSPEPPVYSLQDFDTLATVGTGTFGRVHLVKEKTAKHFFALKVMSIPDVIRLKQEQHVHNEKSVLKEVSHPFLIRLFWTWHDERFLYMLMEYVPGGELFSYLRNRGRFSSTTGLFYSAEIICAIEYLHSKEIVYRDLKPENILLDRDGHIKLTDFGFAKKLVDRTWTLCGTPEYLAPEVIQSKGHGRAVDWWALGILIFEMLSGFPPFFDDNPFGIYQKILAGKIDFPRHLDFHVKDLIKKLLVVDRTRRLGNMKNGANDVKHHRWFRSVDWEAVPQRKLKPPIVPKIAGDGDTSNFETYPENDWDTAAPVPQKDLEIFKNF", "type": "functional"}, "[14]": {"target": "Tyrosine-protein kinase Srms (Homo sapiens, UniProt Q9H3Y6)", "type": "functional"}, "[15]": {"target": "Mitogen-activated protein kinase 12 (Homo sapiens, UniProt P53778)", "type": "functional"}, "[16]": {"target": "Megakaryocyte-associated tyrosine-protein kinase (Homo sapiens, UniProt P42679)", "sequence (P42679 whole entry)": "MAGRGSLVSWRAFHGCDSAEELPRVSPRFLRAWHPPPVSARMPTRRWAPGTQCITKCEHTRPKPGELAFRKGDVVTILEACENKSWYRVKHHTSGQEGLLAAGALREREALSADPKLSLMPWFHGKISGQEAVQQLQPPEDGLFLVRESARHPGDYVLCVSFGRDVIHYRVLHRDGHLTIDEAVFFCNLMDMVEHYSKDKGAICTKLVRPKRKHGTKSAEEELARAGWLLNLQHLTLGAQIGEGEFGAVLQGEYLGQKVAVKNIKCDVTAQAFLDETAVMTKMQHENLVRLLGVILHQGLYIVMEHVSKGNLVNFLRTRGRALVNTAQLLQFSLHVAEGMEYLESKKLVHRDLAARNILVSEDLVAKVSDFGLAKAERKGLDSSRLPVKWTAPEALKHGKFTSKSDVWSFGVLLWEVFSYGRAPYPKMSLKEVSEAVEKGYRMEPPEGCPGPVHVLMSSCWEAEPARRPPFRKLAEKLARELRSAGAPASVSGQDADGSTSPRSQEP", "type": "functional"}, "[17]": {"target": "Homeodomain-interacting protein kinase 4 (Homo sapiens, UniProt Q8NE63)", "type": "functional"}, "[18]": {"target": "RAC-alpha serine/threonine-protein kinase (Homo sapiens, UniProt P31749)", "type": "functional"}, "[19]": {"target": "Serine/threonine-protein kinase Nek2 (Homo sapiens, UniProt P51955)", "sequence (P51955 whole entry)": "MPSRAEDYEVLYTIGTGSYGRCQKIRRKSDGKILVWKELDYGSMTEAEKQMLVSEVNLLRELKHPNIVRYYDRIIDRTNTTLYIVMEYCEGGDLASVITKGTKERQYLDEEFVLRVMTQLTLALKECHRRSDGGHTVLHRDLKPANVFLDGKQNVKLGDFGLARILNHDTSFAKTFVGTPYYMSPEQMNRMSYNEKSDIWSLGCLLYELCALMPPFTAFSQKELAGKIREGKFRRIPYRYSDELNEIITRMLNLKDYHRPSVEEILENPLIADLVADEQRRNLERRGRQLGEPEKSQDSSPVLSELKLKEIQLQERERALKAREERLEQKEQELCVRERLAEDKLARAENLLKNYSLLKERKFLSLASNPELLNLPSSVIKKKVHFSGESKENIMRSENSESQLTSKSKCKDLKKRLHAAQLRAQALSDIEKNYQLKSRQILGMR", "type": "functional"}, "[20]": {"target": "Rho-associated protein kinase 1 (Homo sapiens, UniProt Q13464)", "sequence (Q13464 whole entry)": "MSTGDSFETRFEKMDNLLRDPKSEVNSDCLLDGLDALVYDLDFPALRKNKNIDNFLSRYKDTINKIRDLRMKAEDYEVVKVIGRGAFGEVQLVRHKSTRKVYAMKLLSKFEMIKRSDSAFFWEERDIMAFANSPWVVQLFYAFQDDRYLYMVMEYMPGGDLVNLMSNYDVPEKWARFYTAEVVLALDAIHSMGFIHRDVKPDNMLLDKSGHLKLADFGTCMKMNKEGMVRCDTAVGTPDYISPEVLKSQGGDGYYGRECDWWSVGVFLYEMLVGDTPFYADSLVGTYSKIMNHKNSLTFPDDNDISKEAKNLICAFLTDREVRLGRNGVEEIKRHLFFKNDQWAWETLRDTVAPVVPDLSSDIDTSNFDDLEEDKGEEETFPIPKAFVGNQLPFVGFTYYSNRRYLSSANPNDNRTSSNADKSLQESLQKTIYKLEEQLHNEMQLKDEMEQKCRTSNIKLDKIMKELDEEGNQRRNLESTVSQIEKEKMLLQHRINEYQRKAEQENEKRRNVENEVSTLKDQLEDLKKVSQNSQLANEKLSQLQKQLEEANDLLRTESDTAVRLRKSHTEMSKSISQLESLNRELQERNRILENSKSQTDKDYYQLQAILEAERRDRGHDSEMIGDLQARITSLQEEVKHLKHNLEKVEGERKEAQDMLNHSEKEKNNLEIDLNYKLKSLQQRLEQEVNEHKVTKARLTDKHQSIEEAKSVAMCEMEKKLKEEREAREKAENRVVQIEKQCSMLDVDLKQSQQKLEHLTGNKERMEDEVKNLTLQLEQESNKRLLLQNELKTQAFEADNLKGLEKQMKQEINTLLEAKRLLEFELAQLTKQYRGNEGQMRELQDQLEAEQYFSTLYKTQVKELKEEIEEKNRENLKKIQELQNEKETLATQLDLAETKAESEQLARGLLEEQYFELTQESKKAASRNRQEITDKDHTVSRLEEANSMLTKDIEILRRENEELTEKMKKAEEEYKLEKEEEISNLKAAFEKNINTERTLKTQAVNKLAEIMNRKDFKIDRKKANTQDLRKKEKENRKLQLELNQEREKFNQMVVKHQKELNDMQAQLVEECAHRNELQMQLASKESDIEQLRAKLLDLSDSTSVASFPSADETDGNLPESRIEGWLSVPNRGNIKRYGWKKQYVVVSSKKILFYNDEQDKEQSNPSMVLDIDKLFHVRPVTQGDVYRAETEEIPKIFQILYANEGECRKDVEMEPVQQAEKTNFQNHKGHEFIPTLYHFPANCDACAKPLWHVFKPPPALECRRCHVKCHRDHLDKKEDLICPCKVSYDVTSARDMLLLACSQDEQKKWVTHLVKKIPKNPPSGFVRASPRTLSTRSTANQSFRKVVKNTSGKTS", "type": "functional"}, "[21]": {"target": "Tyrosine-protein kinase Lck (Homo sapiens, UniProt P06239)", "type": "functional"}, "[22]": {"target": "Vascular endothelial growth factor receptor 3 (Homo sapiens, UniProt P35916)", "type": "functional"}, "[23]": {"target": "BDNF/NT-3 growth factors receptor (Homo sapiens, UniProt Q16620)", "sequence (Q16620 whole entry)": "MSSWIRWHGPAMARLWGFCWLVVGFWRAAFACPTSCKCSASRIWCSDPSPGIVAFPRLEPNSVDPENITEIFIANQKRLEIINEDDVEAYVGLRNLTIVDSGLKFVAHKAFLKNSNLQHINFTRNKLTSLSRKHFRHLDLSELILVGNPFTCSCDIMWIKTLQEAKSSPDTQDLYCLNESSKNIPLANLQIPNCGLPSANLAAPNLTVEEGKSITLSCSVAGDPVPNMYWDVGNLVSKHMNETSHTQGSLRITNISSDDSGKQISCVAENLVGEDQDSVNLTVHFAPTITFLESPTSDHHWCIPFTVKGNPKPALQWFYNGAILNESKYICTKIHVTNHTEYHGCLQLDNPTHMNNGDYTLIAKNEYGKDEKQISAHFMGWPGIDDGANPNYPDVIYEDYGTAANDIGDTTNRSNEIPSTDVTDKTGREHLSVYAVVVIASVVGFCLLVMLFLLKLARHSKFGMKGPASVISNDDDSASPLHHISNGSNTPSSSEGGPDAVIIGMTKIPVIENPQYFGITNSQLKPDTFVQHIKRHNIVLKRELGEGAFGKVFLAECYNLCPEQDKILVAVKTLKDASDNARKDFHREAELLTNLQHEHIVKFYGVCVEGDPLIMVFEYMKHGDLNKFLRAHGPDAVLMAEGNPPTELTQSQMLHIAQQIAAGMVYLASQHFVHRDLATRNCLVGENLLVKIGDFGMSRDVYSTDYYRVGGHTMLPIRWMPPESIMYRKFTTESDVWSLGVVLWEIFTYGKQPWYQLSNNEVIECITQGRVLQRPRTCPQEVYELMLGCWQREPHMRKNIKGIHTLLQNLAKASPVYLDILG", "type": "functional"}, "[24]": {"target": "Serine/threonine-protein kinase PAK 1 (Homo sapiens, UniProt Q13153)", "type": "functional"}, "[25]": {"target": "Proto-oncogene tyrosine-protein kinase Src (Homo sapiens, UniProt P12931)", "type": "functional"}, "[26]": {"target": "Vascular endothelial growth factor receptor 2 (Homo sapiens, UniProt P35968)", "type": "functional"}, "[27]": {"target": "Mast/stem cell growth factor receptor Kit (Homo sapiens, UniProt P10721)", "type": "functional"}, "[28]": {"target": "Mitogen-activated protein kinase 13 (Homo sapiens, UniProt O15264)", "type": "functional"}, "[29]": {"target": "Serine/threonine-protein kinase TAO1 (Homo sapiens, UniProt Q7L7X3)", "type": "functional"}, "[30]": {"target": "Receptor tyrosine-protein kinase erbB-4 (Homo sapiens, UniProt Q15303)", "type": "functional"}},
  "note": "Activity calls are given as the source filed them.",
  "data": [
    {"molecule": "O=C(COC(=O)c1ccc([N+](=O)[O-])s1)Nc1cccc(S(=O)(=O)/N=C2/CCCCCN2)c1", "values": [
      {"measurement": "AC50", "setting": "Caspase-9", "value": "30.2 µM (active)"}
    ]},
    {"molecule": "COc1ccc(C(C[N+](=O)[O-])c2c(C)[nH]n(-c3ccccc3)c2=O)cc1", "note": "(stereo not drawn)", "values": [
      {"measurement": "IC50", "setting": "Caspase-3", "value": "45.5 µM (active)"},
      {"measurement": "AC50", "setting": "[1]", "value": "7.91 µM (active)"}
    ]},
    {"molecule": "Oc1c2ccccc2c2c3c(cccc13)N=N2", "note": "[SP-600125]", "values": [
      {"measurement": "Ki", "setting": "[2]", "value": "0.0501 µM (active)"},
      {"measurement": "Ki", "setting": "[3]", "value": "> 6.31 µM (inactive)"},
      {"measurement": "Ki", "setting": "[4]", "value": "0.1 µM (active)"},
      {"measurement": "Ki", "setting": "[5]", "value": "0.251 µM (active)"},
      {"measurement": "Ki", "setting": "[6]", "value": "0.316 µM (active)"},
      {"measurement": "Ki", "setting": "[7]", "value": "0.126 µM (active)"},
      {"measurement": "Ki", "setting": "[8]", "value": "0.0631 µM (active)"},
      {"measurement": "Ki", "setting": "[9]", "value": "1 µM (active)"},
      {"measurement": "Ki", "setting": "[10]", "value": "> 1.58 µM (inactive)"},
      {"measurement": "Ki", "setting": "[11]", "value": "1.26 µM (active)"},
      {"measurement": "Ki", "setting": "[12]", "value": "0.501 µM (active)"},
      {"measurement": "Ki", "setting": "Aurora kinase B", "value": "0.01 µM (active)"},
      {"measurement": "Ki", "setting": "[13]", "value": "> 1.58 µM (inactive)"},
      {"measurement": "Ki", "setting": "[14]", "value": "> 1.58 µM (inactive)"},
      {"measurement": "Ki", "setting": "[15]", "value": "> 6.31 µM (inactive)"},
      {"measurement": "Ki", "setting": "[16]", "value": "0.501 µM (active)"},
      {"measurement": "Ki", "setting": "[17]", "value": "2 µM (active)"},
      {"measurement": "Ki", "setting": "[18]", "value": "> 7.94 µM (inactive)"},
      {"measurement": "Ki", "setting": "[19]", "value": "6.31 µM (active)"},
      {"measurement": "Ki", "setting": "[20]", "value": "2 µM (active)"},
      {"measurement": "Ki", "setting": "[21]", "value": "2 µM (active)"},
      {"measurement": "Ki", "setting": "[22]", "value": "0.0158 µM (active)"},
      {"measurement": "Ki", "setting": "[23]", "value": "0.794 µM (active)"},
      {"measurement": "Ki", "setting": "[24]", "value": "> 10 µM (inactive)"},
      {"measurement": "Ki", "setting": "[25]", "value": "> 2 µM (inactive)"},
      {"measurement": "Ki", "setting": "[26]", "value": "0.631 µM (active)"},
      {"measurement": "Ki", "setting": "[27]", "value": "1.26 µM (active)"},
      {"measurement": "Ki", "setting": "[28]", "value": "> 7.94 µM (inactive)"},
      {"measurement": "Ki", "setting": "[29]", "value": "5.01 µM (active)"},
      {"measurement": "Ki", "setting": "[30]", "value": "3.98 µM (active)"}
    ]}
  ]
}
